Experimental data as given in paper PMC3012785 (Journal of neurochemistry, 2010).
Ends that are not written are not given here.

Settings: rat, in vivo

RHAYRSMAEWGFLYS [PGD3-4]
Half-life: 2.45 h
